The target in the first experiment is T1, HCV NS3/4A protease complex (UniProt P27958, C1454S/C1711G, species not given).
T1 construct: fused on or other part: Three-lysine solubilising tail at the C-terminus of NS4A
As to the kind of experiment: Recombinant HCV NS3/4A protease complex FRET peptide assay (strain not stated). The format is biochemical. The note with it: HCV NS3/4A protease enzyme assay, read-out: IC50 range. From the text: Recombinant HCV NS3/4A Protease Complex FRET Peptide Assay
The purpose of this in vitro assay was to measure the inhibition of HCV NS3 protease complexes, derived from the BMS, H77C or J416S strains, as described below, by compounds of the present invention. This assay provides an indication of how effective compounds of the present invention would be in inhibiting HCV proteolytic activity.
Serum from an HCV-infected patient was obtained from Dr. T. Wright, San Francisco Hospital. An engineered full-length cDNA (compliment deoxyribonucleic acid) template of the HCV genome (BMS strain) was constructed from DNA fragments obtained by reverse transcription-PCR (RT-PCR) of serum RNA (ribonucleic acid) and using primers selected on the basis of homology between other genotype 1a strains. From the determination of the entire genome sequence, a genotype 1a was assigned to the HCV isolate according to the classification of Simmonds et al. (See P Simmonds, K A Rose, S Graham, S W Chan, F McOmish, B C Dow, E A Follett, P L Yap and H Marsden, J. Clin. Microbiol., 31(6), 1493–1503 (1993)). […] The infectious clones, H77C (1a genotype) and J4L6S (1b genotype) were obtained from R. Purcell (NIH) and the sequences are published in Genbank (AAB67036, see Yanagi, M., Purcell, R. H., Emerson, S. U. and Bukh, J. Proc. Natl. Acad. Sci. U.S.A. 94(16),8738–8743 (1997); AF054247, see Yanagi, M., St Claire, M., Shapiro, M., Emerson, S. U., Purcell, R. H. and Bukh, J, Virology 244 (1), 161–172. (1998)).
The BMS, H77C and J4L6S strains were used for production of recombinant NS3/4A protease complexes. DNA encoding the recombinant HCV NS3/4A protease complex (amino acids 1027 to 1711) for these strains were manipulated as described by P. Gallinari et al. (see Gallinari P, Paolini C, Brennan D, Nardi C, Steinkuhler C, De Francesco R. Biochemistry. 38(17):5620–32, (1999)). Briefly, a three-lysine solubilizing tail was added at the 3′-end of the NS4A coding region. The cysteine in the P1 position of the NS4A-NS4B cleavage site (amino acid 1711) was changed to a glycine to avoid the proteolytic cleavage of the lysine tag. Furthermore, a cysteine to serine mutation was introduced by PCR at amino acid position 1454 to prevent the autolytic cleavage in the NS3 helicase domain. The variant DNA fragment was cloned in the pET21b bacterial expression vector (Novagen) and the NS3/4A complex was expressed in Escherichia. coli strain BL21 (DE3) (Invitrogen) following the protocol described by P. Gallinari et al. (see Gallinari P, Brennan D, Nardi C, Brunetti M, Tomei L, Steinkuhler C, De Francesco R., J. Virol. 72(8):6758–69 (1998)) with modifications. Briefly, NS3/4A expression was induced with 0.5 mM Isopropyl β-D-1-thiogalactopyranoside (IPTG) for 22 hr at 20° C. A typical fermentation (10L) yielded approximately 80 g of wet cell paste. The cells were resuspended in lysis buffer (10 mL/g) consisting of 25 mM N-(2-Hydroxyethyl)Piperazine-N′-(2-Ethane Sulfonic acid) (HEPES), pH7.5, 20% glycerol, 500 mM Sodium Chloride (NaCl), 0.5% Triton-X100, 1 ug/ml lysozyme, 5 mM Magnesium Chloride (MgCl2), lug/ml Dnasel, 5 mM β-Mercaptoethanol (βME), Protease inhibitor—Ethylenediamine Tetraacetic acid (EDTA) free (Roche), homogenized and incubated for 20 mins at 4° C. The homogenate was sonicated and clarified by ultra-centrifugation at 235000 g for 1 hr at 4° C. Imidazole was added to the supernatant to a final concentration of 15 mM and the pH adjusted to 8.0. The crude protein extract was loaded on a Nickel-Nitrilotriacetic acid (Ni-NTA) column pre-equilibrated with buffer B (25 mM HEPES, pH 8.0, 20% glycerol, 500 mM NaCl, 0.5% Triton-X100, 15 mM imidazole, 5 mM βME). The sample was loaded at a flow rate of 1 mL/min. The column was washed with 15 column volumes of buffer C (same as buffer B except with 0.2% Triton-X100). The protein was eluted with 5 column volumes of buffer D (same as buffer C except with 200 mM Imidazole). […]
Take `C=CC1CC1(NC(=O)[C@@H]1C[C@@H](OC(=O)NCc2ccccc2C)CN1C(=O)[C@@H](NC(=O)OC(C)(C)C)C(C)(C)C)C(=O)O` (stereo partly drawn) [Compound 103, BocNH-P3(t-BuGly)-P2(Hyp(O—CO(NH—(2-methyl-benzyl))))-P1((1R,2S)/(1S,2R) VinylAcca)—CO2H]: the IC50 was above 10 µM.

Take `C=CC1CC1(NC(=O)[C@@H]1C[C@@H](OC(=O)NCCc2cccs2)CN1C(=O)[C@@H](NC(=O)OC(C)(C)C)C(C)(C)C)C(=O)O` (stereo partly drawn) [Compound 108, BocNH-P3(t-BuGly)-P2(Hyp(O—CO(NH—(2-thiophen-2-yl-ethyl))))-P1((1R,2S)/(1S,2R) VinylAcca)—CO2H]: the IC50 is above 10 µM.

With `C=CC1C[C@]1(NC(=O)[C@@H]1C[C@@H](OC(=O)Nc2c(CC)cccc2C(C)C)CN1C(=O)[C@@H](NC(=O)OC(C)(C)C)C(C)(C)C)C(=O)NS(=O)(=O)C1CC1` (stereo partly drawn) [Compound 22, BocNH-P3(t-BuGly)-P2(Hyp(O—CO(NH—(2-ethyl-6-isopropyl-phenyl))))-P1(1R,2S VinylAcca)—CONHSO2Cyclopropane], the IC50 is 1 to 10 µM.

Turning to `C=CC1CC1(NC(=O)[C@@H]1C[C@@H](OC(=O)Nc2cccc(C(F)(F)F)c2)CN1C(=O)[C@@H](NC(=O)OC(C)(C)C)C(C)(C)C)C(=O)O` (stereo partly drawn) [Compound 109, BocNH-P3(t-BuGly)-P2(Hyp(O—CO(NH—(3-trifluoromethyl-phenyl))))-P1((1R,2S)/(1S,2R) VinylAcca)—CO2H], the IC50 was above 10 µM.

Take `C=CC1CC1(NC(=O)[C@@H]1C[C@@H](OC(=O)N[C@H](C(=O)OC)[C@@H](C)CC)CN1C(=O)[C@@H](NC(=O)OC(C)(C)C)C(C)(C)C)C(=O)O` (stereo partly drawn) [Compound 104, BocNH-P3(t-BuGly)-P2(Hyp(O—CO(NH-2-[(2S,3S)-3-methylvaleric acid methyl ester])))-P1((1R,2S)/(1S,2R) VinylAcca)—CO2H]: the IC50 was in the range of 1 to 10 µM.

Regarding `C=CC1C[C@]1(NC(=O)[C@@H]1C[C@@H](OC(=O)Nc2c(C)cccc2CC)CN1C(=O)[C@@H](NC(=O)OC(C)(C)C)C(C)(C)C)C(=O)NS(=O)(=O)C1CC1` (stereo partly drawn) [Compound 61, BocNH-P3(t-BuGly)-P2(Hyp(O—CO(NH—(2-ethyl-6-methyl))))-P1(1R,2S VinylAcca)—CONHSO2Cyclopropane], the IC50 lay in the range of 1 to 10 µM.

As to `C=CC1CC1(NC(=O)[C@@H]1C[C@@H](OC(=O)Nc2ccccc2)CN1C(=O)[C@@H](NC(=O)OC(C)(C)C)C(C)(C)C)C(=O)O` (stereo partly drawn) [Compound 106, BocNH-P3(t-BuGly)-P2(Hyp(O—CO(NH-phenyl)))-P1((1R,2S)/(1S,2R) VinylAcca)—CO2H], the IC50 is above 10 µM.

In the case of `C=CC1CC1(NC(=O)[C@@H]1C[C@@H](OC(=O)NC(C)c2cccc3ccccc23)CN1C(=O)[C@@H](NC(=O)OC(C)(C)C)C(C)(C)C)C(=O)O` (stereo partly drawn) [Compound 105, BocNH-P3(t-BuGly)-P2(Hyp(O—CO(NH-1-(R)-1-naphthylethyl)))-P1((1R,2S)/(1S,2R) VinylAcca)—CO2H], the IC50 is above 10 µM.

`C=CC1C[C@]1(NC(=O)[C@@H]1C[C@@H](OC(=O)Nc2c(C)nn(C)c2C)CN1C(=O)[C@@H](NC(=O)OC(C)(C)C)C(C)(C)C)C(=O)NS(=O)(=O)C1CC1` (stereo partly drawn) [Compound 68, BocNH-P3(t-BuGly)-P2(Hyp(O—CO(NH—(1,3,5-Trimethyl-pyrazol-4-yl))))-P1(1R,2S VinylAcca)—CONHSO2Cyclopropane]: the IC50 fell in the range of 1 to 10 µM.

For the compound `C=CC1CC1(NC(=O)[C@@H]1C[C@@H](OC(=O)Nc2cc(C)ccc2F)CN1C(=O)[C@@H](NC(=O)OC(C)(C)C)C(C)(C)C)C(=O)O` (stereo partly shown) [Compound 107], the IC50 is above 10 µM.

Consider `C=CC1C[C@]1(NC(=O)[C@@H]1C[C@@H](OC(=O)Nc2c(C)cccc2C)CN1C(=O)[C@@H](NC(=O)OC(C)(C)C)C(C)(C)C)C(=O)NS(=O)(=O)C1CC1` (stereo partly drawn) [Compound 58, BocNH-P3(t-BuGly)-P2(Hyp(O—CO(NH—(2,6-dimethyl-phenyl))))-P1(1R,2S VinylAcca)—CONHSO2Cyclopropane], for which the IC50 was 1 to 10 µM.

For the compound `C=CC1CC1(NC(=O)[C@@H]1C[C@@H](OC(=O)Nc2c(F)cccc2F)CN1C(=O)[C@@H](NC(=O)OC(C)(C)C)C(C)(C)C)C(=O)O` (stereo partly drawn) [Compound 102, BocNH-P3(t-BuGly)-P2(Hyp(O—CO(NH—(2,6-difluoro-phenyl))))-P1((1R,2S)/(1S,2R) VinylAcca)—CO2H], the IC50 is above 10 µM.

The experiment is the same for the next values; noted with them: read-out: IC50 range, HCV NS3/4A protease enzyme assay.
On to `C=CC1C[C@]1(NC(=O)[C@@H]1C[C@@H](OC(=O)Nc2c(CC)cccc2CC)CN1C(=O)[C@@H](NC(=O)OC(C)(C)C)C(C)(C)C)C(=O)NS(=O)(=O)C1CC1` (stereo partly drawn) [Compound 62, BocNH-P3(t-BuGly)-P2(Hyp(O—CO(NH—(2,6-diethyl-phenyl))))-P1(1R,2S VinylAcca)—CONHSO2Cyclopropane], for which the IC50 fell in the range of 1 to 10 µM.

The record behind these values is patent publication US7041698B2, “Hepatitis C virus inhibitors” (Bristol-Myers Squibb Company, priority 2002, dated 2006).
